In patent US8481544B2, “Antibacterial compositions” (Biota Europe Limited, priority 2006, dated 2013):
Values after ≈ are worked out from the molar mass of the structure shown.

Assays:
[1] = test system: Enterococcus faecalis ATCC 29212; assay: MIC against Enterococcus faecalis ATCC 29212; assay type: cell-based; conditions: ATCC29212; Enterococcus faecalis ATCC 29212; read-out: MICs against Enterococcus faecalis, Activity
In short: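 MIC measured by broth microdilution or agar dilution following CLSI guidelines (M7-A7 for aerobes, M11-A6 for anaerobes).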

[2] = test system: Staphylococcus aureus; assay: mouse Staphylococcus aureus septicaemia model of infection, survival at day 7; assay type: in vivo; conditions: 1 and 6 hours after inoculation
Protocol: Some of the Example compounds were also tested for activity in a mouse Staphylococcus aureus septicaemia model of infection.

Compound	melting point [°C]	MIC [1] [mg/L]	Percent survival ([2]; 2 × 100 mg/kg intraperitoneal)	Percent survival ([2]; 2 × 30 mg/kg intraperitoneal)
CCNC(=O)Nc1nc2cc(-c3cccnc3)cc(-c3ccc[nH]3)c2s1 [Example 90, 1-Ethyl-3-[5-pyridin-3-yl-7-(1H-pyrrol-2-yl)-benzothiazol-2-yl]-urea]	220	0.25 to 1 (≈ 0.688 to 2.75 µM)		
CCNC(=O)Nc1nc2cc(-c3cccnc3)cc(Br)c2s1 [Example 3, 1-(7-Bromo-5-pyridin-3-yl-benzothiazol-2-yl)-3-ethyl-urea]	345	0.25 to 1 (≈ 0.663 to 2.65 µM)		
CCNC(=O)Nc1nc2cc(-c3cccnc3)cc(-c3cccc(C(F)(F)F)n3)c2s1 [Example 89, 1-Ethyl-3-[5-pyridin-3-yl-7-(6-trifluoromethyl-pyridin-2-yl)-benzothiazol-2-yl]-urea]	256.7	< 0.25		
CCNC(=O)Nc1nc2cc(-c3cccnc3)cc(-c3ccc(C)cn3)c2s1 [Example 175, 1-Ethyl-3-[7-(5-methyl-pyridin-2-yl)-5-pyridin-3-yl-benzothiazol-2-yl]-urea]	231	< 0.25		
CCNC(=O)Nc1nc2cc(-c3cccnc3)cc(-c3cccc(OC)n3)c2s1 [Example 167, 1-Ethyl-3-[7-(6-methoxy-pyridin-2-yl)-5-pyridin-3-yl-benzothiazol-2-yl]-urea]	300.1	< 0.25		
CCOC(=O)Nc1nc2cc(-c3cccnc3)cc(-c3ccccn3)c2s1 [Example 174, (5-Pyridin-3-yl-7-pyridin-2-yl-benzothiazol-2-yl)-carbamic acid ethyl ester]	235	< 0.25		
CCNC(=O)Nc1nc2cc(-c3cccnc3)cc(-c3cccnc3)c2s1 [Example 4, 1-(5,7-Di-pyridin-3-yl-benzothiazol-2-yl)-3-ethyl-urea]		0.25 to 1 (≈ 0.666 to 2.66 µM)	100	
CCNC(=O)Nc1nc2cc(-c3cccnc3)cc(-c3cccc(Cl)n3)c2s1 [Example 88, 1-[7-(6-Chloro-pyridin-2-yl)-5-pyridin-3-yl-benzothiazol-2-yl]-3-ethyl-urea]	249.9	< 0.25		
CCNC(=O)Nc1nc2cc(-c3cccnc3)cc(-c3ncccc3F)c2s1 [Example 91, 1-Ethyl-3-[7-(3-fluoro-pyridin-2-yl)-5-pyridin-3-yl-benzothiazol-2-yl]-urea]		< 0.25		100
CCNC(=O)Nc1nc2cc(-c3cccnc3)cc(-c3ccc(C#N)cn3)c2s1 [Example 107, 1-[7-(5-Cyano-pyridin-2-yl)-5-pyridin-3-yl-benzothiazol-2-yl]-3-ethyl-urea]		< 0.25		
CCNC(=O)Nc1nc2cc(-c3cncnc3)cc(-c3ccccn3)c2s1 [Example 35, 1-Ethyl-3-(7-pyridin-2-yl-5-pyrimidin-5-yl-benzothiazol-2-yl)-urea]		< 0.25		
CCNC(=O)Nc1nc2cc(-c3ccccn3)cc(-c3cnc(N)nc3)c2s1 [Example 74, 1-[7-(2-Amino-pyrimidin-5-yl)-5-pyridin-2-yl-benzothiazol-2-yl]-3-ethyl-urea]		2 to 16 (≈ 5.11 to 40.9 µM)		
CCNC(=O)Nc1nc2cc(-c3cncc(C(=O)NCCN(C)C)c3)cc(-c3ccccn3)c2s1 [Example 64, N-(2-Dimethylamino-ethyl)-5-[2-(3-ethyl-ureido)-7-pyridin-2-yl-benzothiazol-5-yl]-nicotinamide]		2 to 16 (≈ 4.08 to 32.7 µM)		
CCNC(=O)Nc1nc2cc(-c3ccc4nccn4c3)cc(-c3cccnc3)c2s1 [Example 22, 1-Ethyl-3-(5-imidazo[1,2-a]pyridin-6-yl-7-pyridin-3-yl-benzothiazol-2-yl)-urea]		0.25 to 1 (≈ 0.603 to 2.41 µM)		
CCNC(=O)Nc1nc2cc(-c3cccnc3)cc(-c3ccnc(N)n3)c2s1 [Example 114, 1-[7-(2-Amino-pyrimidin-4-yl)-5-pyridin-3-yl-benzothiazol-2-yl]-3-ethyl-urea]		< 0.25		
CCNC(=O)Nc1nc2cc(-c3cccnc3)cc(-c3cc(C)ccn3)c2s1 [Example 176, 1-Ethyl-3-[7-(4-methyl-pyridin-2-yl)-5-pyridin-3-yl-benzothiazol-2-yl]-urea]		< 0.25		
CCNC(=O)Nc1nc2cc(-c3cccnc3)cc(C(=O)NN)c2s1 [Example 153, 1-Ethyl-3-(7-hydrazinocarbonyl-5-pyridin-3-yl-benzothiazol-2-yl)-urea]		2 to 16 (≈ 5.61 to 44.9 µM)		
CCNC(=O)Nc1nc2cc(-c3cccnc3)cc(-c3cccc(N4CCOCC4)n3)c2s1 [Example 166, 1-Ethyl-3-[7-(6-morpholin-4-yl-pyridin-2-yl)-5-pyridin-3-yl-benzothiazol-2-yl]-urea]		0.25 to 1 (≈ 0.543 to 2.17 µM)		
CCNC(=O)Nc1nc2cc(-n3cccn3)cc(-c3cccnc3)c2s1 [Example 12, 1-Ethyl-3-(5-pyrazol-1-yl-7-pyridin-3-yl-benzothiazol-2-yl)-urea]		2 to 16 (≈ 5.49 to 43.9 µM)		
